Bridge positions count the residues as written; N and C are the ends. Ends that are not written are not given here. Peptide text beside a SMILES is read from it.

The target in one assay is αvβ3 integrin (Homo sapiens, UniProt P05106+P06756). The experiment in a line: Inhibition of αvβ3-mediated attachment of IMR-90 cells to vitronectin. Also on record: endogenous in cells; host or cells: IMR-90 cells. In kind it is cell-based. As to the method: FIG. 13—[…] attachment of IMR-90 cells to vitronectin. The cells that bound were determined as described herein.
Cell lines expressing different integrins were used to examine peptide inhibition of integrin function. A human melanoma cell line, C8161, a fibroblast cell line, WI-38, and an osteosarcoma cell line, MG-63 (described by Seftor et al., Canc. Res., 53:3411–3415 (1993); Vogel et al., J. Biol. Chem., 265:5934–5937 (1990); and Pytela et al. (1985), supra, respectively, each of which is incorporated herein by reference) attach to fibronectin through α5β1 integrin, as does B2/α27, a CHO cell line transfected with human α5. B2/C1, the control parental CHO line (Bauer et al., J. Cell. Biol. 116:477–487 (1992), which is incorporated herein by reference), attaches via […]. CHO cells C11 and NIH 3T3 cells express the endogenous Chinese hamster and mouse α5β1 integrins, respectively. The human melanoma cells, A375-M, attach to fibronectin through both α5β1 and α4β1 integrins (Mould et al., J. Biol. Chem. 265:4020–4024 (1990), which is incorporated herein by reference). […]
Cell lines expressing fibronectin-binding integrins were used to determine peptide activities against these integrins in the cell attachment assay described by Ruoslahti et al., Meth. […] Bound cells were quantitated by staining with 0.1% amido black.

The target in a further assay is T1, α5β1 integrin (Homo sapiens, UniProt P05556+P08648).
T1 construct: The αvβ3, αvβ5 and α5β1 integrins were isolated from human placental extracts; from tissue; host or cells: human placenta
The experiment in a line: Inhibition of peptide-displaying phage binding to α5β1 integrin by synthetic peptides. The following applies: for binding affinity for α5β1: high binding affinity defined as IC50 of 1×10^−7 M or less in a competitive binding assay. The method, then: Phage clone containing the RGDGW [SEQ ID NO:9] sequence was incubated for 1 hour in integrin-coated microliter wells in the presence of the competing peptides. After extensive washing, the phage remained bound were determined as described in Example XII.
In addition, most of the phage-binding activity in the αvβ3 preparation was captured into microliter wells coated with antibodies against the αv or β3 subunits as described previously (Koivunen et al., J. Biol. Chem., 268:20205–10 (1993). The αIIbβ3 integrin was isolated from outdated platelets (Pytela et al., Science, 231:1559–1562 (1986)).
Binding of individual cloned phage to integrins was studied in microliter wells as described in Koivunen et al., J. Cell. Biol., 124:373–380 (1994). Phage binding to α5β1 and αvβ3 were assayed in TBS buffer containing 1% BSA and 1 mM MnCl2 and binding to αvβ5 in the presence of 1 mM CaCl2. Phage that were bound were determined by their ability to infect F-pilus positive K91kan bacteria. Bacteria were grown overnight in microliter wells in the presence of tetracycline and the absorbance indicative of bacterial growth was read at 600 nm with an ELISA plate reader.
Relative affinities of the […] [SEQ ID NO:12] and CRGDC [SEQ ID NO:37] peptides were determined by inhibition of binding of peptide-displaying phage to α5β1 integrin. Peptide-displaying phage were constructed as described by Scott and Smith, Science 249:386–390 (1990) and Example IV. Microwell plates were coated with various integrins as described by Koivunen et al., J. Biol. Chem., 268:20205–10 (1993) and Example II.
The binding of […] [SEQ ID NO:12]-containing peptide ligands to α5β1 integrin was performed as follows. RRETAWA [SEQ ID NO:8]-displaying phage were incubated for 1 hour in the presence of various concentrations of the cyclic peptides containing […] [SEQ ID NO:12] and containing CRGDC [SEQ ID NO:37] in microliter wells coated with the α5β1 integrin. Binding was quantitated by adding K91kan bacteria directly to the wells and growing the bacteria overnight at room temperature (Smith and Scott, Meth. Enzymol., 217:228–257 (1993), which is incorporated herein by reference).
Additional peptide motifs were tested as follows. ELRGDGW-displaying [SEQ ID NO:4] phage were added together with various concentrations of the cyclic peptides containing […] [SEQ ID NO:12] and containing CRGDC [SEQ ID NO:37] into microliter wells coated with the α5β1 integrin, incubated for 1 hour at room temperature and binding to wells was quantitated.

T1 sequence (P08648 42-894 limits assumed): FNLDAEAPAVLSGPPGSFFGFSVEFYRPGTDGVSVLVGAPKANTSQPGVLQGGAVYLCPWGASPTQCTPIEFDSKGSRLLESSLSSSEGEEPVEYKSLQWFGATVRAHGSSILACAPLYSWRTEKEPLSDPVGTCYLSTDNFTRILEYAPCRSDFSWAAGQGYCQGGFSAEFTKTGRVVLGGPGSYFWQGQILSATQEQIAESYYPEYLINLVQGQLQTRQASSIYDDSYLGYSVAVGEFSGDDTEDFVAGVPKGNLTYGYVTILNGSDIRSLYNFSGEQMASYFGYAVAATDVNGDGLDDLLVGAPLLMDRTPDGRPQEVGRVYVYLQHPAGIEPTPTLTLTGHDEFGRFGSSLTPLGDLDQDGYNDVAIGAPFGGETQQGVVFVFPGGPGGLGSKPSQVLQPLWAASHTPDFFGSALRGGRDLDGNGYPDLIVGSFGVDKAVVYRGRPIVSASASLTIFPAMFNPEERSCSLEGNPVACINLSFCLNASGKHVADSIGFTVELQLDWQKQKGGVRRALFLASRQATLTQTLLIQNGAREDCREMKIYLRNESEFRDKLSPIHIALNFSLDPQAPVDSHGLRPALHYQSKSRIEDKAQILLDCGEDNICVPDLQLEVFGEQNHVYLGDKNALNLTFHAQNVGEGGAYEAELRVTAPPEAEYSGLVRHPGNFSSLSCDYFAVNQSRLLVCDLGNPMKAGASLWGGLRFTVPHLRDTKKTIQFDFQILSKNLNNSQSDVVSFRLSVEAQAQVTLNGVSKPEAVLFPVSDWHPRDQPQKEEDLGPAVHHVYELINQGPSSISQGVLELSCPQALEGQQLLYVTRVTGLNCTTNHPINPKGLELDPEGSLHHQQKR
T1 sequence (P08648 895-1049 partner limits assumed): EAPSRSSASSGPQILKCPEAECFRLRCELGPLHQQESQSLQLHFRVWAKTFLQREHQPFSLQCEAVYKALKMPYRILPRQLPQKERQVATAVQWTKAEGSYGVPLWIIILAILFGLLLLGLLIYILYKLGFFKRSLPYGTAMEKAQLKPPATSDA
T1 sequence (P05556 21-798): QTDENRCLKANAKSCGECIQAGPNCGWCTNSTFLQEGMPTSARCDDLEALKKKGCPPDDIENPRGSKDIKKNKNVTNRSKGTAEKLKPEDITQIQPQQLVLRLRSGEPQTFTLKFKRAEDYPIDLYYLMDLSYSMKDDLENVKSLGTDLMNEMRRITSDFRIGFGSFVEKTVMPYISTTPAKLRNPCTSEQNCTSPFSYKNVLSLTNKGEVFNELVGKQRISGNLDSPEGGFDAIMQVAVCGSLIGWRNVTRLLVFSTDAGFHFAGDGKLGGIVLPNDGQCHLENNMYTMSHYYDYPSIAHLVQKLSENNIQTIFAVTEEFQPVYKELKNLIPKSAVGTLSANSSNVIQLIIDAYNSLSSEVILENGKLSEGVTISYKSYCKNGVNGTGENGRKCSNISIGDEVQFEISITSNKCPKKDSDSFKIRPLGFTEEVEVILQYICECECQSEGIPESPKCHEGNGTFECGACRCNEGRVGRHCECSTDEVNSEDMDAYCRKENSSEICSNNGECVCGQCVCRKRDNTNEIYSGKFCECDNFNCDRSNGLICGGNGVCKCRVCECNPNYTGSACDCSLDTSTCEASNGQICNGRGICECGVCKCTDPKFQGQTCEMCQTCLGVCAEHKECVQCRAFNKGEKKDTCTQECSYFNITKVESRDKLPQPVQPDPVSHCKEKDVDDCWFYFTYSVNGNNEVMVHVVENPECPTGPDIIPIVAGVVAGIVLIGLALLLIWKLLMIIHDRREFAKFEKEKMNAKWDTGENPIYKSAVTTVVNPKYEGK
Sequence of αvβ3 integrin (P06756 31-889 limits assumed): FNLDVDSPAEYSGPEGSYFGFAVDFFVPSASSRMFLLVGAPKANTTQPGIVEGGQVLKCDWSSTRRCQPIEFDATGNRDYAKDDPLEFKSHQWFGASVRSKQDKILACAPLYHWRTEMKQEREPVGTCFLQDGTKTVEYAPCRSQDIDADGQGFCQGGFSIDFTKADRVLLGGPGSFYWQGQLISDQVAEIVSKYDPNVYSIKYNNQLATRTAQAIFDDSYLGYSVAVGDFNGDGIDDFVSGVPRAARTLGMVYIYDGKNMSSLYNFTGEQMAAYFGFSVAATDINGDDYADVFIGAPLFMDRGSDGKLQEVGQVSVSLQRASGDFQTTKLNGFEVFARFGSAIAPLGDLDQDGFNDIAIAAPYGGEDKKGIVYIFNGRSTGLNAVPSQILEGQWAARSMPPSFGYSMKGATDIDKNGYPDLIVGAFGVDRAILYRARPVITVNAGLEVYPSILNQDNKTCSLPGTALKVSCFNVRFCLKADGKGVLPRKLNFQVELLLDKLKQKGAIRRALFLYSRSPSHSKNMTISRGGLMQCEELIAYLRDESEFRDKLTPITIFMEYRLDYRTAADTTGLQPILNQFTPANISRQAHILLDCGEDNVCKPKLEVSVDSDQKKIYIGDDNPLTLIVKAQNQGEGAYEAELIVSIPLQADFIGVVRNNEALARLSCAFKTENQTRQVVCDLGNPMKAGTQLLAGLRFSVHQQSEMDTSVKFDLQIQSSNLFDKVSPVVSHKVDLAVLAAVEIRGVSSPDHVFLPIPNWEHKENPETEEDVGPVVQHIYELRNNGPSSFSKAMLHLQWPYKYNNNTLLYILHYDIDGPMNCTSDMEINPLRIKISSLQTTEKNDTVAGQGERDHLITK
Sequence of αvβ3 integrin (P06756 891-1048 partner limits assumed): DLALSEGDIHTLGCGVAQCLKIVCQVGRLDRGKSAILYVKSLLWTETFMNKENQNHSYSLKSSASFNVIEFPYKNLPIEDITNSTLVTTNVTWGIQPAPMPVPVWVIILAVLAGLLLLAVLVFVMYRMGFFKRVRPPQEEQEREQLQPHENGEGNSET
Sequence of αvβ3 integrin (P05106 27-788): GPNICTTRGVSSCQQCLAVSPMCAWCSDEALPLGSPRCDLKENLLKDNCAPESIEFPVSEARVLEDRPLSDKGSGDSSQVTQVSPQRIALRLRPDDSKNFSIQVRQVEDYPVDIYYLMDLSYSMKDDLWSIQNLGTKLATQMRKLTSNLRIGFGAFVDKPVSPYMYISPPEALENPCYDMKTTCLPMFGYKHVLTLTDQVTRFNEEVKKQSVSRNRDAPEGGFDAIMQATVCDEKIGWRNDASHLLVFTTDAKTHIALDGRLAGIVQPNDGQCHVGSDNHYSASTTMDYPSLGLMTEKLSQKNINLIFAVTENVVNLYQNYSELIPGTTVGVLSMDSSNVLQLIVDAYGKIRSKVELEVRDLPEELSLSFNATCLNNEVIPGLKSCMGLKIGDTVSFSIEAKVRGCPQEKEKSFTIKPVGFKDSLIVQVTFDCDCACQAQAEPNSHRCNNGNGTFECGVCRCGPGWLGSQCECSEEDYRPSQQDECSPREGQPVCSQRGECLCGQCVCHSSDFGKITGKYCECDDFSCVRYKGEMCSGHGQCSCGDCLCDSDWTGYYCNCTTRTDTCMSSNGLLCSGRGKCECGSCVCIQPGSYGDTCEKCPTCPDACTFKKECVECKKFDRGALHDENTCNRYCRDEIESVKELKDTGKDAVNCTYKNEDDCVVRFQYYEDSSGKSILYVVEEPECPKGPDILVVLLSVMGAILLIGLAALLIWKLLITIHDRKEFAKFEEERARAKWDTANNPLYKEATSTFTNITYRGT

`C[C@H](N)C(=O)N[C@H]1CSSC[C@@H](C(=O)NCC(=O)O)NC(=O)[C@H](Cc2ccccc2)NC(=O)[C@@H]2CSSC[C@H](NC(=O)[C@H](CC(=O)O)NC1=O)C(=O)N[C@@H](CCCNC(=N)N)C(=O)NCC(=O)N[C@@H](CC(=O)O)C(=O)N2` (H-ACDCRGDCFCG-OH; disulfide 2-10, 4-8): the “effectiveness relative to *CRGDC* in IMR-90 attachment to vitronectin” value at αvβ3 integrin (more effective than *CRGDC*) is 20 fold.
Take “A*CPSRLDSPC*G (ACPSRLDSPCG; disulfide 2-10 (inferred))”: the “concentration at which inhibitory activity was shown” value with αvβ3 integrin (vitronectin) is on record as “higher than 1 mM”. Besides, the “inhibition of RGD phage binding to α5β1” value in the assay with α5β1 integrin (RGDGW phage, FIG. 9) is “no inhibition”.
Take GACRRETAWACGA: at α5β1 integrin (ELRGDGW-displaying phage, CRRETAWAC compared with CRGDC, FIG. 2), the “inhibition of binding of ELRGDGW-displaying phage to α5β1 integrin” value is given as “approximately the same degree”. Besides, the “efficiency of inhibition of RRETAWA-displaying phage binding to α5β1 relative to CRGDC containing peptides” value at α5β1 integrin (RRETAWA-displaying phage, comparator CRGDC, FIG. 4) is “at least 10 times”. Moreover, the “binding affinity for α5β1” value on α5β1 integrin (listed as CRRETAWAC) is recorded as “high binding affinity”; at α5β1 integrin (listed as GA*CRRETAWAC*GA) it was “high affinity”.

The values are drawn from patent publication US7067619B2, “Integrin-binding peptides” (La Jolla Cancer Research Foundation, priority 1993, dated 2006).
